Consider one compound from patent publication US10682442B2, “Small molecule drug release from in situ forming degradable scaffolds incorporating hydrogels and bioceramic microparticles” (University of Kentucky Research Foundation, priority 2014, dated 2020).

Data set [1] can be described thus: In vitro drug release from in situ forming PLGA scaffolds in PBS (Example 1). The following applies: for burst release within one day: freely mixed. In kind it is physicochemical. The protocol: PLGA was added to NMP and stirred overnight until fully dissolved to create a 20 wt/wt % PLGA solution. […] HA was also mixed homogeneously prior to injection to bring the final mixture to 30 wt % HA. Clodronate-loaded PBAE microparticles pre-loaded with 50 mg/mL clodronate were added using an identical technique. […] FIG. 6B illustrates the differences between the proposed system and a traditional injectable system. Simvastatin and clodronate were measured as described below.
The scaffold mixture was injected dropwise through a 16 gauge, blunt-tipped dispensing needle into PBS at 5% wt/vol. Upon contacting PBS, surface PLGA immediately began to precipitate, forming semi-spherical scaffolds approximately 3 mm in diameter that sank to the bottom of the vial. Samples were kept in an incubator at 37° C. on a plate shaker for the duration of the study. Supernatant was collected and replaced at each time point, and these samples were preserved at 4° C. until analysis. Clodronate release was measured for three loading conditions: freely mixed clodronate without HA filler, freely mixed clodronate with HA filler, and clodronate pre-loaded into PBAE microparticles with HA filler. Because PBAE microparticles were fabricated with HA as a dispersing agent, drug release from loaded particles was not investigated without HA filler. Simvastatin release was measured for three loading conditions: freely mixed simvastatin without HA filler, freely mixed simvastatin with HA filler, and simvastatin pre-loaded into PBAE microparticles with HA filler.
Clodronate from collected supernatants were measured using a Powerwave HT (Biotek; Winooski, Vt., USA). In vitro release supernatant was pipetted into a UV-grade 96-well plate (Greiner Bio-One, Frickenhausen, Germany), and baseline absorbance was measured at 240 nm.
Drug release from polymeric systems is often analyzed using an adaptation of the Higuchi model by Peppas et al., widely known as the power law, to characterize release kinetics (Siepmann J, Peppas N A. Modeling of drug release from delivery systems based on hydroxypropyl methylcellulose (HPMC). Advanced Drug Delivery Reviews 2001; 48:139-57):
[formula] represents Tractional release or drug at time t, k is a constant encompassing scaffold and drug properties, and it is the release exponent used to characterize drug release. In the case of the spherical geometry (consistent with scaffolds formed via dropwise injection), n=0.43 corresponds to pure Fickian diffusion, n=0.85 corresponds to pure case II (polymer relaxation-based) transport, and values in between are combinations of the two, termed anomalous transport (Siepmann J, Peppas N A. Modeling of drug release from delivery systems based on hydroxypropyl methylcellulose (HPMC). Advanced Drug Delivery Reviews 2001; 48:139-57). Plots of
[formula] so release data were truncated to below 60% cumulative release when calculating n. Mass Loss and Degradation

Data set [2] can be described thus: Drug loading into PBAE microparticles (loading efficiency, surface vs bulk drug). Type of data set: physicochemical. Particulars: pre-loaded; 100 mg/mL drug solution. As to the method:
FIG. 6A graphically represents the processing method for creating PBAE microparticles, as well as the differences between pre- and post-loaded particles. […] This ratio allowed particles to swell without excess solution remaining, and expected drug loads were calculated under the assumption that all drug solution was imbibed by the microparticles. Particles were lyophilized overnight, briefly re-ground and sieved to break up aggregates, and stored in a vacuum chamber with desiccant. […] Drug-loaded PBAE slabs were ground with 75 wt % HA into particles and stored in a vacuum chamber with desiccant. Predicted values for drug loading using the pre-loading method were obtained by calculating swelling of PBAE in solution based on mass increase and assuming drug was homogeneously present in swollen hydrogels as well as surrounding solution. […] The mixtures containing ethanol and swollen PBAE microparticles were then centrifuged, and supernatants were analyzed using HPLC to detect simvastatin, as described below. Clodronate loading was measured with an identical technique using 50% ethanol, and was detected by absorbance as described below. […] Drug detected in the initial wash was deemed loosely bound to the surface of particles, while drug detected after the 24 hour soak was determined to be imbibed into the bulk of the particles.

A word on the solubility: it is the dissolved amount per volume that the medium holds. A higher solubility goes with a readily soluble substance.

Molecules are shown by their SMILES. In brackets after ≈: the same amount, converted by molar mass.

Consider `O=P(O)(O)C(Cl)(Cl)P(=O)(O)O` [clodronate], for which the release rate in data set [1] (all loading conditions, day 20 through day 31) came out at 3 %/day; in data set [1] (freely mixed without HA, through day 19), 0.6 %/day; in data set [1] (mixed with HA, through day 19) it was 1.3 %/day; in data set [1] (pre-loaded into microparticles, through day 19), 1.3 %/day. Also, the “burst release within one day” value in data set [1] (with HA filler) is 32%; in data set [1] (without HA), 49%. The “release exponent n (power law)” value in data set [1] (pre-loaded drug, initial release during burst (first day)) is listed as 0.49. Also, the “1 day burst release” value in data set [1] (pre-loaded into PBAE microparticles, with HA filler) is recorded as 32%. The compound also showed a loading efficiency in data set [2] of 59%. Further, the values for the solubility in “physchem” (aqueous with cosolvent or surfactant or cyclodextrin) and in the data set “physchem” (water) were 20 mg/mL (≈ 81.7 mM) and no less than 100 mg/mL, respectively.
